{
  "source": "patent US8952024B2",
  "about": "“Herbicidal pyrimidone derivatives” (E I du Pont de Nemours and Company, priority 2009, dated 2015)",
  "experiment_in_all_cases": "Test B pre-/postemergence plant response",
  "assay_type_in_all_cases": "in vivo",
  "conditions_in_all_cases": "Postemergence",
  "key": {"[1]": {"system": "lambsquarters (Chenopodium album)", "procedure,_shortened": "(§1)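 Response scores were assigned visually after 13 to 15 days in a greenhouse, comparing treated pots with controls on a 0–100 scale where 100 denotes complete control. Preemergence treatments went onto freshly seeded loam/sand soil; postemergence treatments onto plants 2 to 18 cm tall.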"}, "[2]": {"system": "goosegrass (Eleusine indica)", "procedure,_shortened": "as §1"}, "[3]": {"system": "Italian ryegrass (Lolium multiflorum)", "procedure,_shortened": "as §1"}, "[4]": {"system": "Surinam grass (Brachiaria decumbens)", "procedure,_shortened": "as §1"}, "[5]": {"system": "wheat (Triticum aestivum)", "procedure,_shortened": "as §1"}, "[6]": {"system": "downy bromegrass (Bromus tectorum)", "procedure,_shortened": "as §1"}, "[7]": {"system": "green foxtail (Setaria viridis)", "procedure,_shortened": "as §1"}, "[8]": {"system": "woolly cupgrass (Eriochloa villosa)", "procedure,_shortened": "as §1"}, "[9]": {"system": "pigweed (Amaranthus retroflexus)", "procedure,_shortened": "as §1"}, "[10]": {"system": "yellow nutsedge (Cyperus esculentus)", "procedure,_shortened": "as §1"}, "[11]": {"system": "large crabgrass (Digitaria sanguinalis)", "procedure,_shortened": "as §1"}, "[12]": {"system": "velvetleaf (Abutilon theophrasti)", "procedure,_shortened": "as §1"}, "[13]": {"system": "ragweed (common ragweed, Ambrosia elatior)", "procedure,_shortened": "as §1"}, "[14]": {"conditions": "31 g ai/ha, 0 to 100 scale (0 no effect, 100 complete control)"}, "[15]": {"conditions": "62 g ai/ha, scale 0 to 100 (0 no effect, 100 complete control)"}, "[16]": {"conditions": "125 g ai/ha, scale 0 (no effect) to 100 (complete control), 13 to 15 days"}, "[17]": {"conditions": "250 g ai/ha, scale 0 to 100 (0 no effect, 100 complete control), 13 to 15 days"}},
  "data": [
    {"smiles": "CCn1c(-c2ccccc2)ncc(C(=O)C2=C(O)C3CCC(C3)C2=O)c1=O", "note": "(stereo not shown) [Compound 239]", "values": [
      {"measurement": "Plant response rating, Lambsquarters", "setting": "[1]; [14]", "result": 98},
      {"measurement": "Plant response rating, Lambsquarters", "setting": "[1]; [15]", "result": 98},
      {"measurement": "Plant response rating, Lambsquarters", "setting": "[1]; [16]", "result": 100},
      {"measurement": "Plant response rating, Lambsquarters", "setting": "[1]; [17]", "result": 100},
      {"measurement": "Plant response rating, Goosegrass", "setting": "[2]; [14]", "result": 80},
      {"measurement": "Plant response rating, Goosegrass", "setting": "[2]; [15]", "result": 98},
      {"measurement": "Plant response rating, Goosegrass", "setting": "[2]; [16]", "result": 98},
      {"measurement": "Plant response rating, Goosegrass", "setting": "[2]; [17]", "result": 100},
      {"measurement": "Plant response rating, Ryegrass, Italian", "setting": "[3]; [14]", "result": 0},
      {"measurement": "Plant response rating, Ryegrass, Italian", "setting": "[3]; [15]", "result": 0},
      {"measurement": "Plant response rating, Ryegrass, Italian", "setting": "[3]; [16]", "result": 0},
      {"measurement": "Plant response rating, Ryegrass, Italian", "setting": "[3]; [17]", "result": 0},
      {"measurement": "Plant response rating, Surinam Grass", "setting": "[4]; [14]", "result": 25},
      {"measurement": "Plant response rating, Surinam Grass", "setting": "[4]; [15]", "result": 35},
      {"measurement": "Plant response rating, Surinam Grass", "setting": "[4]; [16]", "result": 45},
      {"measurement": "Plant response rating, Surinam Grass", "setting": "[4]; [17]", "result": 75},
      {"measurement": "Plant response rating, Wheat", "setting": "[5]; [14]", "result": 0},
      {"measurement": "Plant response rating, Wheat", "setting": "[5]; [15]", "result": 0},
      {"measurement": "Plant response rating, Wheat", "setting": "[5]; [16]", "result": 5},
      {"measurement": "Plant response rating, Wheat", "setting": "[5]; [17]", "result": 30},
      {"measurement": "Plant response rating, Bromegrass, Downy", "setting": "[6]; [14]", "result": 0},
      {"measurement": "Plant response rating, Bromegrass, Downy", "setting": "[6]; [15]", "result": 5},
      {"measurement": "Plant response rating, Bromegrass, Downy", "setting": "[6]; [16]", "result": 5},
      {"measurement": "Plant response rating, Bromegrass, Downy", "setting": "[6]; [17]", "result": 10},
      {"measurement": "Plant response rating, Foxtail, Green", "setting": "[7]; [14]", "result": 80},
      {"measurement": "Plant response rating, Foxtail, Green", "setting": "[7]; [15]", "result": 85},
      {"measurement": "Plant response rating, Foxtail, Green", "setting": "[7]; [16]", "result": 90},
      {"measurement": "Plant response rating, Foxtail, Green", "setting": "[7]; [17]", "result": 95},
      {"measurement": "Plant response rating, Cupgrass, Woolly", "setting": "[8]; [14]", "result": 75},
      {"measurement": "Plant response rating, Cupgrass, Woolly", "setting": "[8]; [15]", "result": 95},
      {"measurement": "Plant response rating, Cupgrass, Woolly", "setting": "[8]; [16]", "result": 95},
      {"measurement": "Plant response rating, Cupgrass, Woolly", "setting": "[8]; [17]", "result": 95},
      {"measurement": "Plant response rating, Pigweed", "setting": "[9]; [14]", "result": 95},
      {"measurement": "Plant response rating, Pigweed", "setting": "[9]; [15]", "result": 98},
      {"measurement": "Plant response rating, Pigweed", "setting": "[9]; [16]", "result": 98},
      {"measurement": "Plant response rating, Pigweed", "setting": "[9]; [17]", "result": 100},
      {"measurement": "Plant response rating, Nutsedge, Yellow", "setting": "[10]; [14]", "result": 30},
      {"measurement": "Plant response rating, Nutsedge, Yellow", "setting": "[10]; [15]", "result": 30},
      {"measurement": "Plant response rating, Nutsedge, Yellow", "setting": "[10]; [16]", "result": 65},
      {"measurement": "Plant response rating, Nutsedge, Yellow", "setting": "[10]; [17]", "result": 70},
      {"measurement": "Plant response rating, Crabgrass, Large", "setting": "[11]; [14]", "result": 75},
      {"measurement": "Plant response rating, Crabgrass, Large", "setting": "[11]; [15]", "result": 90},
      {"measurement": "Plant response rating, Crabgrass, Large", "setting": "[11]; [16]", "result": 95},
      {"measurement": "Plant response rating, Crabgrass, Large", "setting": "[11]; [17]", "result": 98},
      {"measurement": "Plant response rating, Velvetleaf", "setting": "[12]; [14]", "result": 100},
      {"measurement": "Plant response rating, Velvetleaf", "setting": "[12]; [15]", "result": 100},
      {"measurement": "Plant response rating, Velvetleaf", "setting": "[12]; [16]", "result": 100},
      {"measurement": "Plant response rating, Velvetleaf", "setting": "[12]; [17]", "result": 100},
      {"measurement": "Plant response rating, Ragweed", "setting": "[13]; [14]", "result": 95},
      {"measurement": "Plant response rating, Ragweed", "setting": "[13]; [15]", "result": 98},
      {"measurement": "Plant response rating, Ragweed", "setting": "[13]; [16]", "result": 100},
      {"measurement": "Plant response rating, Ragweed", "setting": "[13]; [17]", "result": 100}
    ]}
  ]
}
